Ki and Ratio data for seven compounds are collected here from ChEMBL document CHEMBL1777673, “Synthesis and biological evaluation of 3-alkyl-dihydrotetrabenazine derivatives as vesicular monoamine transporter-2 (VMAT2) ligands” (Bioorg Med Chem Lett, 2011).

Broadly, the Ki is the dissociation constant of the complex between target and ligand, obtained from inhibition or displacement.

Data set [1] addresses T1, Synaptic vesicular amine transporter (Rattus norvegicus, UniProt Q01827). As to the kind of experiment: Displacement of [18F](+)-FP-DTBZ from VMAT2 in rat striatal homogenate after 60 mins by gamma counting.
Data set [2] deals with T1, Synaptic vesicular amine transporter. Description: Displacement of [125I]-iodovinyl-TBZ from VMAT2 in rat striatal homogenate after 60 mins by gamma counting.
The subject of data set [3] is Nucleic Acid. Description: Ratio of drug uptake in striatum to cerebellum in ICR mouse at 10 to 20 uCi, iv by gamma counting. It counts as ADME, organism-based. The settings on record: in vivo.

T1 sequence (Q01827 whole entry): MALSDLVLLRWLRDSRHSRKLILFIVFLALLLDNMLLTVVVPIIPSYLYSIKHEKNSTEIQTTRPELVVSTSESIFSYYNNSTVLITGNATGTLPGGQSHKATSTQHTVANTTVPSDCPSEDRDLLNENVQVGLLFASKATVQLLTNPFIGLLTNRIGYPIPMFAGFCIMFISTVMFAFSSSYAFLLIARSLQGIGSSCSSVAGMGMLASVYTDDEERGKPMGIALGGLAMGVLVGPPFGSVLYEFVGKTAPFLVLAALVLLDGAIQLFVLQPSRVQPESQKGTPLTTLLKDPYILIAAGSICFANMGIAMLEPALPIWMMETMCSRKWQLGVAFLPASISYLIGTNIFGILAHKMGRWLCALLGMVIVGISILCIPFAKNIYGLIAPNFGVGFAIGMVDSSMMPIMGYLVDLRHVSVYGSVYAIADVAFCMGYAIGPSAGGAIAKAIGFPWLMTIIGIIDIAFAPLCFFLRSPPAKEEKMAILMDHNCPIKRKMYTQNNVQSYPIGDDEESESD

In data set [1], `C=CCC1CN2CCc3cc(OC)c(OC)cc3C2C[C@H]1O` (mixture of isomers) returned a Ki of 253 nM. `COc1cc2c(cc1OC)C1C[C@@H](O)C(CC3CCC3)CN1CC2` (mixture of isomers): in data set [2], the inhibitory constant (Ki) amounted to 26.9 nM. The compound `COc1cc2c(cc1OC)C1C[C@@H](O)C(CC3CCCC3)CN1CC2` (mixture of isomers) returned a Ki in data set [2] of 227 nM. On the same count and under the same terms, next, `COc1cc2c(cc1OC)C1C[C@@H](O)C(CC3CCCCC3)CN1CC2` (mixture of isomers): 137 nM. The compound `C/C=C/C1CN2CCc3cc(OCCCF)c(OC)cc3C2C[C@H]1O` (mixture of isomers) yielded a Ki in data set [1] of 22.4 nM. Consider `COc1cc2c(cc1OCCC[18F])CCN1C[C@@H](CC(C)C)[C@H](O)C[C@H]21` [FLORBENAZINE F 18], for which the Ratio in data set [3] is listed as 4.51. In data set [2], `COc1cc2c(cc1OCCCF)CCN1C[C@@H](CC(C)C)[C@H](O)C[C@H]21` [FLORBENAZINE] gave an inhibition constant (Ki) of 0.1 nM.
